Test results: the supplement of paper PMC10307832

Key:
Assay in all cases: relative viability (nuclei count vs DMSO), 5 days (fraction); higher = more cells survive
[1] = compound: COc1nc(N)nc2c1ncn2[C@@H]1O[C@H](CO)[C@@H](O)[C@@H]1O [Nelarabine] + Nc1ncn([C@H]2C[C@H](O)[C@@H](CO)O2)c(=O)n1 [Decitabine] (partner 2 µM)
Method in brief: (§1)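 Lung cancer cell lines in 1536-well plates were dosed by pin tool the day after seeding, either with one drug alone or with a fixed anchor-drug dose plus five library-drug doses (not always all listed) in √10 steps. After 5 days, cells were fixed and their nuclei stained in one step (final 0.05% Triton X-100, 1% formaldehyde, 1 ug/ml Hoechst), then counted on 4× images. Relative viability is the nuclei count in treated wells divided by that in vehicle wells. Values are medians of duplicate plates.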

[2] = compound: COc1nc(N)nc2c1ncn2[C@@H]1O[C@H](CO)[C@@H](O)[C@@H]1O [Nelarabine] + O=C(c1cc(Cc2n[nH]c(=O)c3ccccc23)ccc1F)N1CCN(C(=O)C2CC2)CC1 [Olaparib] (partner 8 µM)
Method in brief: as §1

[3] = compound: C=CCn1c(=O)c2cnc(Nc3ccc(N4CCN(C)CC4)cc3)nc2n1-c1cccc(C(C)(C)O)n1 [Adavosertib] + Nc1nc2[nH]cc(CCc3ccc(C(=O)N[C@@H](CCC(=O)O)C(=O)O)cc3)c2c(=O)[nH]1 [Pemetrexed] (partner 0.2 µM)
Method in brief: as §1

[4] = compound: COc1nc(N)nc2c1ncn2[C@@H]1O[C@H](CO)[C@@H](O)[C@@H]1O [Nelarabine] + COc1cccc2cc(-c3nc([C@H]4CC[C@H](C(=O)O)CC4)n4ncnc(N)c34)[nH]c12 [OSI-027] (partner 0.5 µM)
Method in brief: as §1

With SK-LU-1 the relative viability ([1]; first compound 0.01 µM) was 0.815, the relative viability ([1]; first compound 0.03162 µM) was 0.574 and the relative viability ([1]; first compound 0.1 µM) was 0.638. The relative viability ([1]; first compound 0.3162 µM) was 0.822, the relative viability ([1]; first compound 1 µM) was 0.597 and the relative viability ([2]; first compound 0.01 µM) was 0.524. It also gave a relative viability ([2]; first compound 0.03162 µM) of 0.314, a relative viability ([2]; first compound 0.1 µM) of 0.5 and a relative viability ([2]; first compound 0.3162 µM) of 0.505. It also gave a relative viability ([2]; first compound 1 µM) of 0.397, a relative viability ([3]; first compound 0.01 µM) of 1.03 and a relative viability ([3]; first compound 0.03162 µM) of 0.967. For the same cell line, the relative viability ([3]; first compound 0.1 µM) was 0.812, the relative viability ([3]; first compound 0.3162 µM) was 0.536 and the relative viability ([4]; first compound 0.01 µM) was 0.287. The relative viability ([4]; first compound 0.03162 µM) was 0.267, the relative viability ([4]; first compound 0.1 µM) was 0.364 and the relative viability ([4]; first compound 0.3162 µM) was 0.396. It also gave a relative viability ([4]; first compound 1 µM) of 0.327.

BEN gave a relative viability ([1]; first compound 0.01 µM) of 0.729, a relative viability ([1]; first compound 0.03162 µM) of 0.762 and a relative viability ([1]; first compound 0.1 µM) of 0.712. For the same cell line, the relative viability ([1]; first compound 0.3162 µM) was 0.79, the relative viability ([1]; first compound 1 µM) was 0.744 and the relative viability ([2]; first compound 0.01 µM) was 1.3. It also gave a relative viability ([2]; first compound 0.03162 µM) of 1.08, a relative viability ([2]; first compound 0.1 µM) of 1.11 and a relative viability ([2]; first compound 0.3162 µM) of 1.04. The relative viability ([2]; first compound 1 µM) was 1.25, the relative viability ([3]; first compound 0.01 µM) was 0.739 and the relative viability ([3]; first compound 0.03162 µM) was 0.76. It also gave a relative viability ([3]; first compound 0.1 µM) of 0.816, a relative viability ([3]; first compound 0.3162 µM) of 0.815 and a relative viability ([4]; first compound 0.01 µM) of 0.328. For the same cell line, the relative viability ([4]; first compound 0.03162 µM) was 0.293, the relative viability ([4]; first compound 0.1 µM) was 0.541 and the relative viability ([4]; first compound 0.3162 µM) was 0.296. The relative viability ([4]; first compound 1 µM) was 0.301.

NCI-H1915 was tested, and the relative viability ([1]; first compound 0.01 µM) was 0.261, the relative viability ([1]; first compound 0.03162 µM) was 0.266 and the relative viability ([1]; first compound 0.1 µM) was 0.258. It also gave a relative viability ([1]; first compound 0.3162 µM) of 0.27, a relative viability ([1]; first compound 1 µM) of 0.268 and a relative viability ([2]; first compound 0.01 µM) of 0.25. For the same cell line, the relative viability ([2]; first compound 0.03162 µM) was 0.264, the relative viability ([2]; first compound 0.1 µM) was 0.261 and the relative viability ([2]; first compound 0.3162 µM) was 0.251. For the same cell line, the relative viability ([2]; first compound 1 µM) was 0.24, the relative viability ([3]; first compound 0.01 µM) was 0.528 and the relative viability ([3]; first compound 0.03162 µM) was 0.464. It also gave a relative viability ([3]; first compound 0.1 µM) of 0.346, a relative viability ([3]; first compound 0.3162 µM) of 0.259 and a relative viability ([4]; first compound 0.01 µM) of 0.675. For the same cell line, the relative viability ([4]; first compound 0.03162 µM) was 0.666, the relative viability ([4]; first compound 0.1 µM) was 0.678 and the relative viability ([4]; first compound 0.3162 µM) was 0.706. It also gave a relative viability ([4]; first compound 1 µM) of 0.684.

COR-L23 showed a relative viability ([1]; first compound 0.01 µM) of 0.532, a relative viability ([1]; first compound 0.03162 µM) of 0.381 and a relative viability ([1]; first compound 0.1 µM) of 0.408. The relative viability ([1]; first compound 0.3162 µM) was 0.482, the relative viability ([1]; first compound 1 µM) was 0.446 and the relative viability ([2]; first compound 0.01 µM) was 0.432. For the same cell line, the relative viability ([2]; first compound 0.03162 µM) was 0.31, the relative viability ([2]; first compound 0.1 µM) was 0.301 and the relative viability ([2]; first compound 0.3162 µM) was 0.373. The relative viability ([2]; first compound 1 µM) was 0.363, the relative viability ([3]; first compound 0.01 µM) was 0.203 and the relative viability ([3]; first compound 0.03162 µM) was 0.198. For the same cell line, the relative viability ([3]; first compound 0.1 µM) was 0.204, the relative viability ([3]; first compound 0.3162 µM) was 0.165 and the relative viability ([4]; first compound 0.01 µM) was 0.911. It also gave a relative viability ([4]; first compound 0.03162 µM) of 0.611, a relative viability ([4]; first compound 0.1 µM) of 0.854 and a relative viability ([4]; first compound 0.3162 µM) of 0.878. For the same cell line, the relative viability ([4]; first compound 1 µM) was 0.759.

With NCI-H1975 the relative viability ([1]; first compound 0.01 µM) was 0.391, the relative viability ([1]; first compound 0.03162 µM) was 0.336 and the relative viability ([1]; first compound 0.1 µM) was 0.426. For the same cell line, the relative viability ([1]; first compound 0.3162 µM) was 0.418, the relative viability ([1]; first compound 1 µM) was 0.431 and the relative viability ([2]; first compound 0.01 µM) was 1.04. The relative viability ([2]; first compound 0.03162 µM) was 0.942, the relative viability ([2]; first compound 0.1 µM) was 0.823 and the relative viability ([2]; first compound 0.3162 µM) was 0.856. The relative viability ([2]; first compound 1 µM) was 0.797, the relative viability ([3]; first compound 0.01 µM) was 0.263 and the relative viability ([3]; first compound 0.03162 µM) was 0.268. For the same cell line, the relative viability ([3]; first compound 0.1 µM) was 0.209, the relative viability ([3]; first compound 0.3162 µM) was 0.213 and the relative viability ([4]; first compound 0.01 µM) was 0.791. For the same cell line, the relative viability ([4]; first compound 0.03162 µM) was 0.55, the relative viability ([4]; first compound 0.1 µM) was 0.87 and the relative viability ([4]; first compound 0.3162 µM) was 0.834. For the same cell line, the relative viability ([4]; first compound 1 µM) was 0.876.

RERF-LC-KJ showed a relative viability ([1]; first compound 0.01 µM) of 0.764, a relative viability ([1]; first compound 0.03162 µM) of 0.639 and a relative viability ([1]; first compound 0.1 µM) of 0.705. The relative viability ([1]; first compound 0.3162 µM) was 0.699, the relative viability ([1]; first compound 1 µM) was 0.711 and the relative viability ([2]; first compound 0.01 µM) was 0.946. For the same cell line, the relative viability ([2]; first compound 0.03162 µM) was 1, the relative viability ([2]; first compound 0.1 µM) was 1.11 and the relative viability ([2]; first compound 0.3162 µM) was 0.987. It also gave a relative viability ([2]; first compound 1 µM) of 0.852, a relative viability ([3]; first compound 0.01 µM) of 0.384 and a relative viability ([3]; first compound 0.03162 µM) of 0.463. It also gave a relative viability ([3]; first compound 0.1 µM) of 0.481, a relative viability ([3]; first compound 0.3162 µM) of 0.471 and a relative viability ([4]; first compound 0.01 µM) of 0.654. The relative viability ([4]; first compound 0.03162 µM) was 0.524, the relative viability ([4]; first compound 0.1 µM) was 0.505 and the relative viability ([4]; first compound 0.3162 µM) was 0.59. For the same cell line, the relative viability ([4]; first compound 1 µM) was 0.627.

Work on HCC-15 yielded a relative viability ([1]; first compound 0.01 µM) of 0.739, a relative viability ([1]; first compound 0.03162 µM) of 0.58 and a relative viability ([1]; first compound 0.1 µM) of 0.656. For the same cell line, the relative viability ([1]; first compound 0.3162 µM) was 0.63, the relative viability ([1]; first compound 1 µM) was 0.731 and the relative viability ([2]; first compound 0.01 µM) was 0.813. It also gave a relative viability ([2]; first compound 0.03162 µM) of 0.691, a relative viability ([2]; first compound 0.1 µM) of 0.931 and a relative viability ([2]; first compound 0.3162 µM) of 0.667. It also gave a relative viability ([2]; first compound 1 µM) of 0.846, a relative viability ([3]; first compound 0.01 µM) of 0.221 and a relative viability ([3]; first compound 0.03162 µM) of 0.227. It also gave a relative viability ([3]; first compound 0.1 µM) of 0.216, a relative viability ([3]; first compound 0.3162 µM) of 0.229 and a relative viability ([4]; first compound 0.01 µM) of 0.817. It also gave a relative viability ([4]; first compound 0.03162 µM) of 0.559, a relative viability ([4]; first compound 0.1 µM) of 0.675 and a relative viability ([4]; first compound 0.3162 µM) of 0.703. It also gave a relative viability ([4]; first compound 1 µM) of 0.778.

Work on EKVX yielded a relative viability ([1]; first compound 0.01 µM) of 0.373, a relative viability ([1]; first compound 0.03162 µM) of 0.266 and a relative viability ([1]; first compound 0.1 µM) of 0.356. The relative viability ([1]; first compound 0.3162 µM) was 0.292, the relative viability ([1]; first compound 1 µM) was 0.571 and the relative viability ([2]; first compound 0.01 µM) was 1.11. For the same cell line, the relative viability ([2]; first compound 0.03162 µM) was 0.852, the relative viability ([2]; first compound 0.1 µM) was 0.817 and the relative viability ([2]; first compound 0.3162 µM) was 0.775. The relative viability ([2]; first compound 1 µM) was 0.866, the relative viability ([3]; first compound 0.01 µM) was 0.426 and the relative viability ([3]; first compound 0.03162 µM) was 0.374. The relative viability ([3]; first compound 0.1 µM) was 0.309, the relative viability ([3]; first compound 0.3162 µM) was 0.362 and the relative viability ([4]; first compound 0.01 µM) was 0.797. The relative viability ([4]; first compound 0.03162 µM) was 0.661, the relative viability ([4]; first compound 0.1 µM) was 0.652 and the relative viability ([4]; first compound 0.3162 µM) was 0.729. For the same cell line, the relative viability ([4]; first compound 1 µM) was 0.685.
